Experimental findings from US12503446B2, “Bromodomain inhibitors” (FORSCHUNGSZENTRUM JÜLICH GMBH, priority 2019, dated 2025) are described below.

The subject of test [1] is HEL cells. Kind of test: Cell cycle analysis (propidium iodide, flow cytometry), HEL. It counts as cell-based. As to conditions: compared to PFI-1. As to the method: The influence of the inhibitors used on the cell cycle was examined by means of propidium iodide staining of the fixed cells. For this purpose, the cells were fixed with 95% ethanol at −20° C., RNA was destroyed by RNase (100 μg/ml) at 37° C. for […], and the DNA was stained by means of propidium iodide (50 μg/ml). Using a flow cytometer (Gallios (Beckman Coulter, Krefeld, Germany)), the cell cycle phases were analysed, and the data were evaluated by means of FlowJo Software (Version 10).
During the proliferation, the cells go through different stages of the cell cycle in which genomic DNA is replicated, the cell nucleus is broken down and cell division takes place, resulting in two identical cells.
(In general: A flow cytometer gives signals particle by particle.)

The subject of test [2] is HEL cells. Kind of test: Viability from trypan blue staining, HEL. Type of test: cell-based. As to conditions: 5 μM, compared to PFI-1. The protocol: Cell count and viability was determined after trypan blue staining. The appropriate concentrations of the inhibitors per ml of medium were added, or the correspondingly highest volume of DMSO was added as control group.
During the study of cell proliferation, the viability of the cell lines was likewise determined from the trypan blue staining. Trypan blue cannot penetrate into living cells.

Test [3] concerns mononuclear cells from MPN patients (JAK2V617F-positive). Kind of test: CFU assay, MPN patients (PV, PMF, ET). It counts as cell-based, human. As to the method: With the aid of the CFU assay, it is possible to determine the colony-forming capacity of individual cells in a semisolid methylcellulose medium (MethoCult H4434, StemCell Technologies, Cologne, Germany). The number of colonies was determined after 7-11 days.
PBMCs from PV, ET or PMF patients: 4×10^5 cells/ml
Individual cells in the CFU assay form cell colonies in culture after 12 days, unless the formation thereof is prevented by inhibitors.
Myeloproliferative neoplasia includes three conventional Philadelphia chromosome-negative (BCR-ABL-negative) disease entities: polycythemia vera (PV), essential thrombocythaemia (ET) and primary myelofibrosis (PMF). Both PV and ET can progress to become myelofibrosis (MF), which usually means a fatal deterioration in the disease state and in the success of treatment. All the MPN patients involved in these studies were JAK2V617F-positive.

Test [4] relates to PARP1 cleavage in Molm-14 cells. Kind of test: PARP1 cleavage Western blot (apoptosis), Molm-14. It counts as cell-based. As to conditions: 5 μM. The protocol:
Cell lysates were produced with RIPA lysis buffer (50 mM Tris pH 7.4, 150 mM sodium chloride, 1 mM EDTA, 1% Triton-X, 15% glycerol, 0.5% sodium deoxycholate, and protease/phosphatase inhibitors). Protein concentrations were determined by the Bradford Protein Assay using a Nanodrop Spectrometer (NanoDrop 2000/2000c system, Thermo Fisher Scientific, Darmstadt, Germany) at 595 nm. To 25 μg of protein lysates was added 4xLämmli sample buffer, followed by denaturing at 65° C. for 5 min and introduction into the SDS-Page. The proteins were transferred by the wet blot method in Towbin buffer (3 g Tris, 14.4 g glycine, 5% methanol per litre of ddH2O) to a PVDF membrane at 100 mA overnight. The membrane was blocked with 10% BSA in TBS-T buffer (20 mM Tris-HCl, pH 7.6, 137 mM NaCl, 0.05% IGEPAL). The primary antibodies were incubated at 4° C. overnight, and the HRP-labelled antibodies at room temperature with the membrane for […]. The proteins were detected by means of PCA-ECL solution using a chemiluminescence detector (Fusion SL, PeqLab).
In addition, a possible induction of apoptosis in the cell lines described by compound MF2 was examined. […] The cleavage of the PARP1 protein is an indicator of incipient apoptosis (cell death) of the cells, and the cleavage products of PARP1 were accordingly examined by Western blot. In detail, after the inhibitor treatment, cell lysates were produced with RIPA lysis buffer. Protein concentrations were determined with the Bradford protein assay using a Nanodrop Spectrometer at 595 nm. To 25 μg of the protein lysates was added 4×Lämmli sample buffer, followed by denaturing at 65° C. for 5 min and introduction into the SDS-Page. The proteins were transferred by the wet blot method to a PVDF membrane at 100 mA overnight. The membrane was blocked with 10% BSA in TBS-T buffer. The primary antibodies were incubated at 4° C. overnight, and the HRP-labelled antibodies at room temperature with the membrane for 45 min. The proteins were detected by means of PCA-ECL solution using a chemiluminescence detector (Fusion SL, PeqLab). […]
Background: A western blot detects proteins with antibodies after separation by electrophoresis.

The subject of test [5] is haematopoietic cell lines, erythroleukaemia and AML cell lines. Kind of test: Inhibitory activity in haematopoietic cell lines (summary statements). It counts as cell-based. The protocol: All studies with the HEL, Molm-14 and K562 cell lines mentioned (sourced from DSMZ: ACC-11, ACC-10 and ACC-777) were conducted under germ-free conditions under a sterile hood. Incubation was effected at 37° C. in an incubator at a CO2 saturation of 5%. For the passage of the suspension cells, the cells were transferred in a Falcon prefilled with PBS (phosphate buffered saline) and centrifuged at 1200 rpm for 5 min. All three cell lines were cultured in RPMI-1640 medium (Gibco, Thermo Fischer Scientific, Darmstadt, Germany) with 10% FCS and 1% penicillin streptomycin.
The viability and metabolic activity of the cells were measured by the MTT assay. Yellow, water-soluble MTT (3-([…])-2,5-diphenyltetrazolium bromide) is a tetrazolium salt which is reduced to dark blue formazan in living cells. Insoluble formazan is released by addition of isopropanol-HCl, and its intensity can be determined by photometry at a wavelength of 550 nm. Thus, the proportion of living cells is measured by comparison with a particular control sample. The cells were counted and washed with PBS, and 30 000 cells per well were sown in triplicates in a 96-well plate. For the inhibitor treatment, the stated final concentrations were used. For this purpose, 10 µl of the appropriate inhibitor dilution was introduced into the 96-well plates, and then 90 μl of cell suspension was pipetted in. The plates were incubated in an incubator for 72 h (37° C., 5% CO2). After the incubation, 10 μl of MTT solution (5 mg/ml) was applied to the wells with a multichannel pipette and thoroughly resuspended. This was followed by incubation for 4 h in the dark at room temperature. Subsequently, the cells were resuspended in 100 μl of isopropanol-HCl and lysed, and absorption at a wavelength of 550 nm was measured by photometry with a plate reader (Kayto, RT-2100C).

As for `CN1Cc2cc(N=[S@@](C)(=O)c3ccccc3)ccc2NC1=O` [MF2-S, (S)—N-(3-methyl-2-oxo-1,2,3,4-tetrahydroquinazolin-6-yl)-S-methyl-S-phenylsulfoximine], in the test with HEL cells [1], the “subG1 phase (percentage of dead cells), HEL” value is reported as “significantly higher proportions” and the “synthesis phase (S phase) of cell cycle, HEL” value is reported as “more significantly inhibited by MF2-S than by PFI-1”. The “viability of HEL cells” value in the test on HEL cells [2] is “significantly reduced the viability”. Moreover, the “colony count, PMF patient” value in test [3] (1 μM) is recorded as “very efficiently reduced the colony count”. Moreover, the “colony count, MPN patients” value in test [3] (5 μM, compared to PFI-1) is on record as “significantly greater reduction in each case in the colony count”. In addition, the “uncleaved PARP1, Molm-14” value in test [4] (48 h) is “less uncleaved PARP1 was apparent”. The “band for the PARP1 cleavage product, Molm-14” value in test [4] (48 h, compared to PFI-1) is given as “same intensity”. For the same compound, in test [4] (compared to MF2, MF2-R, PFI-1), the “induction of apoptosis, Molm-14” value is reported as “induced apoptosis more strongly than the other compounds examined”. Also, the “inhibitory activity in haematopoietic / leukaemia cell lines (in words)” value in test [5] was “excellent inhibition of the cell proliferation”.
